What all share (assay): MTT assay, growth inhibition by HDACi after 48 h
Common to all, as to format: cell-based
(Formazan colour is commonly taken as a measure of viable cells.)

The test system of one assay is SW620. As for the experimental part:
(§1) HT29, HCT116, SW480, SW620 colon adenocarcinomas cell lines, 911 human embryonic retinal cell lines and HEK293, a human embryonic kidney cell line expressing the adenoviral E1 protein were purchased from ATCC (American Tissue Culture Collection, Manassas, Va., USA).
(§2) The same medium was used for SW480 and SW620 supplemented with 1 mM Sodium Pyruvate (Invitrogen/GIBCO)
(§3) First, three different histone deacetylase inhibitors: Trichostatin A (TSA), an hydroxamic acid; Valproic Acid (VPA), a short-chain aliphatic acid, and sodium butyrate (Nabu), a short-chain aliphatic acid, were evaluated for their ability to induce inhibition of the growth of these cells after 48 h of treatment using an MTT assay.

The next assay has as its system SW480. The settings on record: SW480, 48 h of treatment. On the procedure:
as §1, §2, §3

The next assay deals with HT29.
Description: as §1
HT29 and 911 were maintained in Dulbecco's modified Eagle's medium (DMEM; GIBCO) supplemented with 10% heat-inactivated fetal bovine serum (FBS; GIBCO).
as §3

In another assay the test system is HCT116. As for the experimental part:
as §1
HCT116 were cultured, in Mc Coy's 5A mediums with 10% heat-inactivated-FBS.
as §3

Consider `CCCC(=O)[O-].[Na+]` [Nabu, sodium butyrate], for which the IC50 (as a rule, the concentration at which inhibition is half-maximal) worked out at 3000 µM in the assay with SW620 (Homo sapiens, SW-620, SW620, 48 h of treatment); 7000 µM with SW480 (Homo sapiens); 4000 µM in the assay with HT29 (Homo sapiens, HT-29, HT29, 48 h of treatment); 1000 µM with HCT116 (Homo sapiens, HCT-116, HCT116, 48 h of treatment).

For the compound `CC(/C=C/C(=O)NO)=C\[C@@H](C)C(=O)c1ccc(N(C)C)cc1` [TSA, Trichostatin A], the half-inhibitory concentration (IC50) with SW620 (SW620, 48 h of treatment) is 0.037 µM; in the assay with SW480, 0.075 µM; in the assay with HT29 (HT29, 48 h of treatment), 0.15 µM; with HCT116 (HCT116, 48 h of treatment), 0.035 µM.

(Values after patent US20140341857A1, “COMBINATION OF ONCOLYTIC AD[…] HISTONE DEACETYLASE INHIBITORS” (INSTITUT GUSTAVE ROUSSY, priority 2011, published 2014).)
